Each structure is given as a SMILES string.

This assay deals with p-IKKa levels in L363 (NIK translocated multiple myeloma) cells. As to the kind of experiment: Assay 2: Effect of compounds on p-IKKa levels in L363 (NIK translocated multiple myeloma) cells. In kind it is cell-based. As to conditions: Homo sapiens, L-363, 6 h, read-out: Assay 2 IC50 (nM), p-IKKa (Ser 176/180) in BAFF stimulated L363 cells with MG132, 6 h; average if tested more than once. A digest of the protocol: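 L363 cells incubated overnight ± 250 ng/ml BAFF, then 6 h at 37 °C with compound (0.3% DMSO) ± 10 μM MG132. Lysates assayed for p-IKKa (Ser176/180) by AlphaLISA SureFire. IC50 from sigmoidal fit of % inhibition normalized to BAFF/MG132-stimulated and unstimulated controls.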
Take `CN1CC[C@@](O)(c2cc(-c3cccc(-c4ccnc(Nc5cnn6ccccc56)n4)n3)no2)C1=O` [Example 53, (R)-3-Hydroxy-1-methyl-3-(3-(6-(2-(pyrazolo[1,5-a]pyridin-3-ylamino)pyrimidin-4-yl)pyridin-2-yl)isoxazol-5-yl)pyrrolidin-2-one]: the IC50 was < 50 nM.
On to `CN1CC[C@@](O)(c2cc(-c3cccc(-c4ccnc(Nc5cn(C)nc5OCC(F)F)n4)n3)no2)C1=O` [Example 54, (R)-3-(3-(6-(2-((3-(2,2-Difluoroethoxy)-1-methyl-1H-pyrazol-4-yl)amino)pyrimidin-4-yl)pyridin-2-yl)isoxazol-5-yl)-3-hydroxy-1-methylpyrrolidin-2-one], for which the IC50 is < 50 nM.
As for `CCOc1nn(C)cc1Nc1nccc(-c2cccc(-c3cc([C@]4(O)CCN(C)C4=O)on3)n2)n1` [Example 55, (R)-3-(3-(6-(2-((3-Ethoxy-1-methyl-1H-pyrazol-4-yl)amino)pyrimidin-4-yl)pyridin-2-yl)isoxazol-5-yl)-3-hydroxy-1-methylpyrrolidin-2-one], the figure is < 50 nM.
In the case of `CN1CC[C@@](O)(c2cc(-c3cccc(-c4ccnc(Nc5cnn(CC(F)F)c5)n4)n3)no2)C1=O` [Example 56, (R)-3-(3-(6-(2-((1-(2,2-Difluoroethyl)-1H-pyrazol-4-yl)amino)pyrimidin-4-yl)pyridin-2-yl)isoxazol-5-yl)-3-hydroxy-1-methylpyrrolidin-2-one] it was < 50 nM; in that of `Cc1nn(CC(F)F)cc1Nc1nccc(-c2cccc(-c3cc([C@]4(O)CCN(C)C4=O)on3)n2)n1` [Example 57, (R)-3-(3-(6-(2-((1-(2,2-Difluoroethyl)-3-methyl-1H-pyrazol-4-yl)amino)pyrimidin-4-yl)pyridin-2-yl)isoxazol-5-yl)-3-hydroxy-1-methylpyrrolidin-2-one], < 50 nM; in that of `COc1nn(CC(F)F)cc1Nc1nccc(-c2cccc(-c3cc([C@]4(O)CCN(C)C4=O)on3)n2)n1` [Example 58, (R)-3-(3-(6-(2-((1-(2,2-Difluoroethyl)-3-methoxy-1H-pyrazol-4-yl)amino)pyrimidin-4-yl)pyridin-2-yl)isoxazol-5-yl)-3-hydroxy-1-methylpyrrolidin-2-one], < 50 nM.
With `CN1CC[C@@](O)(c2cc(-c3cccc(-c4ccnc(Nc5cn(C)nc5OCC(F)(F)F)n4)n3)no2)C1=O` [Example 59, (R)-3-Hydroxy-1-methyl-3-(3-(6-(2-((1-methyl-3-(2,2,2-trifluoroethoxy)-1H-pyrazol-4-yl)amino)pyrimidin-4-yl)pyridin-2-yl)isoxazol-5-yl)pyrrolidin-2-one], the IC50 is < 50 nM.
In the case of `CN1CC[C@@](O)(c2cc(-c3cccc(-c4ccnc(Nc5ccn(CCF)n5)n4)n3)no2)C1=O` [Example 60, (R)-3-(3-(6-(2-((1-(2-Fluoroethyl)-1H-pyrazol-3-yl)amino)pyrimidin-4-yl)pyridin-2-yl)isoxazol-5-yl)-3-hydroxy-1-methylpyrrolidin-2-one], the IC50 was < 50 nM.
`CN1CC[C@@](O)(c2cc(-c3cccc(-c4ccnc(Nc5cnn(CCF)c5)n4)n3)no2)C1=O` [Example 61, (R)-3-(3-(6-(2-((1-(2-Fluoroethyl)-1H-pyrazol-4-yl)amino)pyrimidin-4-yl)pyridin-2-yl)isoxazol-5-yl)-3-hydroxy-1-methylpyrrolidin-2-one]: the IC50 is < 50 nM.
For the compound `CN1CC[C@@](O)(c2cc(-c3cccc(-c4ccnc(Nc5cnn(CCN6CCOCC6)c5)n4)n3)no2)C1=O` [Example 62, (R)-3-Hydroxy-1-methyl-3-(3-(6-(2-((1-(2-morpholinoethyl)-1H-pyrazol-4-yl)amino)pyrimidin-4-yl)pyridin-2-yl)isoxazol-5-yl)pyrrolidin-2-one], the IC50 is < 50 nM.
As for `Cc1oncc1Nc1nccc(-c2cccc(-c3cc([C@]4(O)CCN(C)C4=O)on3)n2)n1` [Example 63, (R)-3-Hydroxy-1-methyl-3-(3-(6-(2-((5-methylisoxazol-4-yl)amino)pyrimidin-4-yl)pyridin-2-yl)isoxazol-5-yl)pyrrolidin-2-one], the figure is < 50 nM.

(Values after patent US20250282768A1 (Janssen Pharmaceutica NV, priority 2022, published 2025).)
